Results: US6414021B1, “Control of intraocular pressure during surgery” (Sucampo AG, priority 2000, dated 2002)

Key:
[1] = tested on: intraocular pressure in monkeys; test: Effects on intraocular pressure by intra-anterior chamber perfusion with a lower dosage in monkeys (Example 2, 2 ng/mL); assay type: in vivo, cynomologus monkeys; conditions: for IOP: perfusion 40 μL/min for 1 hour; for IOP / Difference in IOP between both treatments (IOP in 15-keto acid of latanoprost treatment minus IOP in vehicle treatment) / ΔIOP: Changes of IOP from pre-treatment value: mean ± S.E. of 7 animals
Protocol: The effects on intraocular pressure by intra-anterior chamber perfusion with a lower dosage of 13,14-dihydro-15-keto-17-phenyl-18,19,20-trinor-PGF2 α (15-keto acid of latanoprost) were investigated in monkeys. One hour perfusion in the anterior chamber with 15-keto acid of latanoprost at the concentration (2 ng/mL) was carried out.
The solution containing 15-keto acid of latanoprost at 2 ng/mL was prepared with a commercially available intraocular perfusate (Opeguard MA, Senju Pharmaceutical Co. Ltd.) as a vehicle.
Seven male cynomologus monkeys (Body weight: 3.9-6.0 kg) purchased from Kasyo Co., Ltd. were used. These monkeys were housed individually in cages in a room which was maintained at room temperature of 24±1° C., relative humidity of 55±10%, ventilation rate of about 12 times/hour and 12-hour light-dark cycle (fluorescent lighting: 8:00 to 20:00). The animals were given food pellets for monkeys (PS, Oriental Yeast Co., Ltd.), vegetables and fruits once a day, and allowed free access to tap water from an automatic dispenser. The healthy animals without abnormalities in the anterior segment of the eye were used in this study.
The animals were anesthetized by an intramuscular injection of 5.0-7.5 mg/kg of katamine hydrochloride (Ketalar 50, Sankyo Co., Ltd.), and restrained in a supine position. Two 30 G injection needles (one for infusion of the dosing solution and the other for discharge, Becton Dickinson and Co.) connected to polyethylene cannula (PE10, Becton Dickinson and Co.) were inserted into the anterior chamber from the temporal corneal ring of the eye ball. The anterior chamber was perfused with the 15-keto acid of latanoprost solution or the vehicle at a rate of 40 μL/min through the cannula for 1 hour using a syringe pump (Model 100, KD Scientific Inc.). During the perfusion, the anesthesia was maintained by intramuscular injection of 5.0 mg/kg ketamine hydrochloride every 20 minutes.
The animals were systemically anesthetized by an intramuscular injection of 5.0-7.5 mg/kg of ketamine hydrochloride (Ketalar 50, Sankyo Co., Ltd.), and the ocular surface was anesthetized by a instillation of 0.4% oxybuprocaine hydrochloride (Benoxil 0.4% solution, Santen Pharmaceutical Co., Ltd.). The animals were fixed in a supine position, and the intraocular pressure was measured by use of a pneumatonometer (Model 30 Classic, Mentor O & O.) before, and 3 and 5 hours after starting the perfusion (2 and 4 hours after stopping the perfusion, respectively).
The animals were used two times. The same eye of each animal was used for both treatments in a crossover way with a recovery period for at least 12 days.
The data were statistically analyzed with Student's t-test or paired t-test. P values less than 0.05 were considered to be statistically significant.

[2] = tested on: intraocular pressure in monkeys; test: Intraocular pressure lowering effect by perfusion in the anterior chamber in monkeys (Example 1, 59 ng/mL); assay type: in vivo, cynomolgus monkeys; conditions: for IOP decrease as compared with changes in IOP of the control after vehicle perfusion: 59 ng/mL, anterior chamber perfusion 50 μL/min for 1 hour, n=2
Protocol: The intraocular pressure lowering effect of 15-keto acid of latanoprost (13,14-dihydro-15-keto-17-phenyl-18,19,20-trinor-PGF2α) by perfusion in the anterior chamber in monkeys was investigated.
Male cynomolgus monkeys (body weight: 4.5-6.5 kg) were used. These monkeys were housed individually in cages for monkeys in a room which was maintained at room temperature of 24±1° C., relative humidity of 55±10%, ventilation of about 12 times/hour and a 12-hour light-dark cycle (fluorescent lighting: 8:00 a.m. to 8:00 p.m). The animals were given solid food for monkeys (PS, Oriental Yeast Co., Ltd.), vegetables and fruits, and allowed free access to tap water from an automatic dispenser. The healthy animals without abnormalities in the anterior segment of the eye were used in this study.
In the present study the solution containing 59 ng/mL of 15-keto acid of latanoprost was adjusted with commercially available intraocular perfusate (Opeguard-MA, Lot P-464, Senju Pharmaceutical Co., Ltd.). The control solution (vehicle) was the intraocular perfusate.
The animals were anesthetized by the injection intramuscularly with 5.0-7.5 mg/kg of ketamine hydrochloride (Ketalar®50, Sankyo Co., Ltd.), and restrained in a supine position. In operation and perfusion of the dosing solution in the anterior chamber, the anesthesia was maintained by intramuscular injection of 5 mg/kg of ketamine at interval of 30 minutes. […]
After the ocular surface of monkeys was anesthetized by instillation of 0.4% oxybuprocaine hydrochloride (Benoxil® 0.4% solution, Santen Pharmaceutical Co., Ltd.) under i.m. systemic anesthesia with 5 mg/kg of ketamine hydrochloride, IOP was measured with an applanation pneumatonograph (Alcon Japan Ltd.). IOP was measured before perfusion of the test substance and 2 and 4 hours after perfusion (3 and 5 hours, respectively, after the start of the perfusion of the test substance). The mean value of the IOP measured twice at 30-minute interval before perfusion was used as IOP before perfusion of the test substance. […]

[3] = 2 ng/mL, 3 hours after starting perfusion
[4] = 2 ng/mL, 5 hours after starting perfusion

Q: For `O=C(O)CCC/C=C\C[C@@H]1[C@@H](CCC(=O)CCc2ccccc2)[C@H](O)C[C@@H]1O` [15-keto acid of latanoprost, 13,14-dihydro-15-keto-17-phenyl-18,19,20-trinor-PGF2α], which “effect on intraocular pressure (in words)” value ([1]; 2 ng/mL solution, intra-anterior chamber perfusion) is on record?
A: significant reduction in the intraocular pressure

Q: And the IOP [1, 3]?
A: 23.1 ± 1.3 mmHg

Q: What about the IOP [1, 4] of the same compound?
A: 24.4 ± 0.7 mmHg

Q: What about the IOP ([1]; 2 ng/mL, before perfusion) of the same compound?
A: 24.1 ± 0.8 mmHg

Q: And the “Difference in IOP between both treatments (IOP in 15-keto acid of latanoprost treatment minus IOP in vehicle treatment)” value [1, 3]?
A: −2.9 ± 1.1 mmHg

Q: What about the “ΔIOP: Changes of IOP from pre-treatment value” [1, 3] of the same compound?
A: −1.0 ± 0.7 mmHg

Q: And the “lowering of intraocular pressure as compared with the pre-treatment value” ([1]; 2 ng/mL, 3 hours after starting the perfusion)?
A: 1.0 mmHg

Q: And the “Difference in IOP between both treatments (IOP in 15-keto acid of latanoprost treatment minus IOP in vehicle treatment)” value [1, 4]?
A: 0.0 ± 1.0 mmHg

Q: What about the “ΔIOP: Changes of IOP from pre-treatment value” [1, 4] of the same compound?
A: 0.3 ± 0.7 mmHg

Q: What about the “Difference in IOP between both treatments (IOP in 15-keto acid of latanoprost treatment minus IOP in vehicle treatment)” value ([1]; 2 ng/mL, before perfusion) of the same compound?
A: 0.7 ± 1.1 mmHg

Q: What about the “IOP decrease as compared with changes in IOP of the control after vehicle perfusion” value ([2]; 3 hours after the start of perfusion) of the same compound?
A: 2.8 mmHg

Q: And the “IOP decrease as compared with changes in IOP of the control after vehicle perfusion” value ([2]; 5 hours after the start of perfusion)?
A: 2.3 mmHg

Q: What about the “effect on intraocular pressure (in words)” value ([2]; perfusion in the anterior chamber, monkeys) of the same compound?
A: intraocular pressure was lowered
